Reference: the supplement of paper PMC8612539
In brackets after ≈: the same amount, converted by molar mass.

What was measured:
Pasteurella multocida = assay: minimum inhibitory concentration (MIC)
Method: (§1)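 Broth microdilution MIC (Sensititre BOPO7F bovine plate, CLSI methods) of 19 antimicrobials against field isolates of P. multocida, M. haemolytica, H. somni (deep nasopharyngeal swabs) and E. coli, Enterococcus spp. (rectal swabs) from weaned dairy heifers. Incubation 16-24 h at 35 C. MIC is the lowest concentration preventing visible growth. Values with <= or > lie at the tested range limits. Trimethoprim-sulfamethoxazole is given as the trimethoprim component of a 1:19 mixture.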

Enterococcus spp. = assay: minimum inhibitory concentration (MIC)
Method: as §1

CN1C[C@@H]2C[C@H]1CN2c1cc2c(cc1F)c(=O)c(C(=O)O)cn2C1CC1 [Danofloxacin]
minimum inhibitory concentration [µg/mL]
Settings	Enterococcus spp.	Pasteurella multocida
isolate (source animal id): 2	0.25 (≈ 0.7 µM)	–
isolate (source animal id): 35	> 1	–
isolate (source animal id): 42	1 (≈ 2.8 µM)	–
isolate (source animal id): 44	1 (≈ 2.8 µM)	–
isolate (source animal id): 79	1 (≈ 2.8 µM)	–
isolate (source animal id): 88	0.25 (≈ 0.7 µM)	–
isolate (source animal id): 91	0.25 (≈ 0.7 µM)	–
isolate (source animal id): 92	1 (≈ 2.8 µM)	–
isolate (source animal id): 111	0.25 (≈ 0.7 µM)	–
isolate (source animal id): 122	1 (≈ 2.8 µM)	–
isolate (source animal id): 123	0.5 (≈ 1.4 µM)	–
isolate (source animal id): 133	1 (≈ 2.8 µM)	–
isolate (source animal id): 158	1 (≈ 2.8 µM)	–
isolate (source animal id): 168	0.5 (≈ 1.4 µM)	–
isolate (source animal id): 169	0.5 (≈ 1.4 µM)	–
isolate (source animal id): 171	0.5 (≈ 1.4 µM)	–
isolate (source animal id): 175	> 1	–
isolate (source animal id): 177	> 1	–
isolate (source animal id): 181	0.5 (≈ 1.4 µM)	–
isolate (source animal id): 182	1 (≈ 2.8 µM)	–
isolate (source animal id): 183	1 (≈ 2.8 µM)	–
isolate (source animal id): 187	0.5 (≈ 1.4 µM)	–
isolate (source animal id): 190	0.5 (≈ 1.4 µM)	–
isolate (source animal id): 194	0.5 (≈ 1.4 µM)	–
isolate (source animal id): 195	0.5 (≈ 1.4 µM)	–
isolate (source animal id): 197	0.5 (≈ 1.4 µM)	–
isolate (source animal id): 211	1 (≈ 2.8 µM)	–
isolate (source animal id): 214	> 1	–
isolate (source animal id): 222	0.5 (≈ 1.4 µM)	–
isolate (source animal id): 223	0.5 (≈ 1.4 µM)	–
isolate (source animal id): 228	0.5 (≈ 1.4 µM)	–
isolate (source animal id): 230	0.5 (≈ 1.4 µM)	–
isolate (source animal id): 235	0.5 (≈ 1.4 µM)	–
isolate (source animal id): 236	> 1	–
isolate (source animal id): 239	> 1	–
isolate (source animal id): 241	0.5 (≈ 1.4 µM)	–
isolate (source animal id): 244	0.5 (≈ 1.4 µM)	–
isolate (source animal id): 246	0.5 (≈ 1.4 µM)	–
isolate (source animal id): 247	0.5 (≈ 1.4 µM)	–
isolate (source animal id): 250	0.25 (≈ 0.7 µM)	–
isolate (source animal id): 252	> 1	–
isolate (source animal id): 268	0.25 (≈ 0.7 µM)	–
isolate (source animal id): 269	–	0.25 (≈ 0.7 µM)
isolate (source animal id): 270	–	> 1
isolate (source animal id): 274	–	> 1
isolate (source animal id): 275	–	> 1
isolate (source animal id): 276	–	> 1
isolate (source animal id): 277	–	0.25 (≈ 0.7 µM)
isolate (source animal id): 278	–	> 1
isolate (source animal id): 279	–	1 (≈ 2.8 µM)
isolate (source animal id): 280	–	> 1
isolate (source animal id): 282	1 (≈ 2.8 µM)	–
isolate (source animal id): 284	–	> 1
isolate (source animal id): 285	1 (≈ 2.8 µM)	> 1
isolate (source animal id): 287	–	> 1
isolate (source animal id): 289	0.5 (≈ 1.4 µM)	–
isolate (source animal id): 290	0.5 (≈ 1.4 µM)	≤ 0.12
isolate (source animal id): 294	–	≤ 0.12
isolate (source animal id): 295	–	≤ 0.12
isolate (source animal id): 296	0.5 (≈ 1.4 µM)	> 1
isolate (source animal id): 298	0.5 (≈ 1.4 µM)	–
isolate (source animal id): 301	0.5 (≈ 1.4 µM)	–
isolate (source animal id): 307	–	≤ 0.12
isolate (source animal id): 310	> 1	≤ 0.12
isolate (source animal id): 311	–	≤ 0.12
isolate (source animal id): 312	–	> 1
isolate (source animal id): 313	–	> 1
isolate (source animal id): 315	–	> 1
isolate (source animal id): 316	–	> 1
isolate (source animal id): 320	0.5 (≈ 1.4 µM)	–
isolate (source animal id): 331	1 (≈ 2.8 µM)	–
isolate (source animal id): 333	0.5 (≈ 1.4 µM)	–
isolate (source animal id): 341	> 1	–
